{"source": "patent US20260234180A1", "about": "“AMINO ACID DERIVATIVE, PREPARATION METHOD THEREFOR, AND PHARMACEUTICAL COMPOSITION FOR TREATING HEPATITIS, COMPRISING SAME” (priority 2021, published 2026)", "data": [{"tested_on": "HBV virus", "experiment": "HBV infection of HepG2-NTCP cells, HBeAg ELISA analysis", "assay_type": "cell-based, hepatitis B virus (HBV)", "settings": "20 μM, O.D. 450 nm", "procedure": "Specifically, the HepG2-NTCP cell line was cultured on a 6-well plate, incubation was performed overnight, HBV inhibitors were treated at a concentration of 20 μM, and the positive control Myrcludex-B (MyrB) was treated at a concentration of 200 nM, followed by culture for 24 hours. After HBV infection into the cells to make HBV 3000 genome equivalent per ml/cell (Geq/cell), the cell culture medium was replaced (medium changing, MC) a day after the viral infection to remove the virus unattached to cell membranes. In order to measure an amount of virus that entered the cell, medium changing (MC) was performed once more 4 days after viral infection. 2 days after replacement, HBeAg ELISA analysis was performed using a supernatant, and Southern blot analysis was performed with cell pellets.\nHBeAg ELISA analysis was performed using an HBeAg ELISA kit (sanbio, Wantai HBeAg ELISA, cat #WB-2496) for the supernatant obtained by the method in Experimental Example 4-1.\nFirst, a negative control group (Mock), positive control group (MyrB), and samples according to the present disclosure were loaded, by 50 μl each to be triplicate, onto a 96-well plate coated with capture Ab. In this case, Example 1 (LCA-ILE), Example 44 (LCA-Val), Example 52 (LCA-Tyr), Example 51 (LCA-Ser), Example 55 (LCA-Glu), Example 2 (UDCA-Ile), Example 3 (UDCA-Val), Example 25 (LCA-Val-Trp), Example 10 (DCA-Ile), Comparative Example 1 (LCA), and Comparative Example 2 (UDCA) were used as the sample.\nThe HRP-conjugated detection antibody was loaded into each well by 50 μl, followed by a reaction at 37° C. for 30 minutes. Washing buffer (1×PBS, 0.5% Tween20) was added by 200 μl, and washing was performed 5 times. 50 μl of chromogen solution A and 50 μl of chromogen solution B were added to each well, and a reaction was carried out in the darkness at 37° C. for 15 minutes. The stop solution was added to each well by 50 μl each to stop the reaction, and the amount of HBeAg was measured by measuring the absorbance (optical density, O.D.) level in the 450 nm wavelength band.", "values": [{"smiles": "CC[C@@H](C)[C@H](NC(=O)CC[C@@H](C)[C@H]1CC[C@H]2[C@@H]3CC[C@@H]4C[C@H](O)CC[C@]4(C)[C@H]3CC[C@]12C)C(=O)O", "note": "[Example 1, (2S,3R)-2-((R)-4-((3R,5R,8R,9S,10S,13R,14S,17R)-3-hydroxy-10,13-dimethyl-hexadecahydro-1H-cyclopenta[a]phenanthren-17-yl)pentanamido)-3-methylpentanoic acid]", "HBeAg absorbance level relative to Comparative Example 1 (LCA) and Comparative Example 2 (UDCA)": "lower", "HBeAg absorbance level relative to the negative control group (Mock)": "relatively lower"}, {"smiles": "CC[C@@H](C)[C@H](NC(=O)CC[C@@H](C)[C@H]1CC[C@H]2[C@@H]3[C@@H](O)C[C@@H]4C[C@H](O)CC[C@]4(C)[C@H]3CC[C@]12C)C(=O)O", "note": "[Example 2, (2S,3R)-2-((R)-4-((3R,5S,7S,8R,9S,10S,13R,14S,17R)-3,7-dihydroxy-10,13-dimethyl-hexadecahydro-1H-cyclopenta[a]phenanthren-17-yl)pentanamido)-3-methylpentanoic acid]", "HBeAg absorbance level relative to Comparative Example 1 (LCA) and Comparative Example 2 (UDCA)": "lower", "HBeAg absorbance level relative to the negative control group (Mock)": "relatively lower"}, {"smiles": "CC(C)[C@H](NC(=O)CC[C@@H](C)[C@H]1CC[C@H]2[C@@H]3[C@@H](O)C[C@@H]4C[C@H](O)CC[C@]4(C)[C@H]3CC[C@]12C)C(=O)O", "note": "[Example 3, (S)-2-((R)-4-((3R,5S,7S,8R,9S,10S,13R,14S,17R)-3,7-dihydroxy-10,13-dimethyl-hexadecahydro-1H-cyclopenta[a]phenanthren-17-yl)pentanamido)-3-methylbutanoic acid]", "HBeAg absorbance level relative to Comparative Example 1 (LCA) and Comparative Example 2 (UDCA)": "lower", "HBeAg absorbance level relative to the negative control group (Mock)": "relatively lower"}, {"smiles": "CC[C@@H](C)[C@H](NC(=O)CC[C@@H](C)[C@H]1CC[C@H]2[C@@H]3CC[C@@H]4C[C@H](O)CC[C@]4(C)[C@H]3C[C@H](O)[C@]12C)C(=O)O", "note": "[Example 10, (2S,3R)-2-((R)-4-((3R,5R,8R,9S,10S,12S,13R,14S,17R)-3,12-dihydroxy-10,13-dimethyl-hexadecahydro-1H-cyclopenta[a]phenanthren-17-yl)pentanamido)-3-methylpentanoic acid]", "HBeAg absorbance level relative to Comparative Example 1 (LCA) and Comparative Example 2 (UDCA)": "lower", "HBeAg absorbance level relative to the negative control group (Mock)": "relatively lower"}, {"smiles": "CC(C)[C@H](NC(=O)CC[C@@H](C)[C@H]1CC[C@H]2[C@@H]3CC[C@@H]4C[C@H](O)CC[C@]4(C)[C@H]3CC[C@]12C)C(=O)O", "note": "[Example 44, (S)-2-((R)-4-((3R,5R,8R,9S,10S,13R,14S,17R)-3-hydroxy-10,13-dimethyl-hexadecahydro-1H-cyclopenta[a]phenanthren-17-yl)pentanamido)-3-methylbutanoic acid]", "HBeAg absorbance level relative to Comparative Example 1 (LCA) and Comparative Example 2 (UDCA)": "lower", "HBeAg absorbance level relative to the negative control group (Mock)": "relatively lower"}]}]}
